Read-outs that look alike come from different tables or passages of the source.
How the values were obtained:
[1] = test system: E. coli ESBL4 CTX-M-15; experiment: Broth microdilution MIC, E. coli ESBL4; assay type: cell-based; settings: fixed ceftazidime 4 μg/mL, CAMHB, 16-20 hours 37° C.
Outline: (§1)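 MIC of the test compound was read by eye after 16-20 h at 37° C, with inoculation following CLSI broth microdilution. The compound ran 32 to 0.25 μg/ml final in 2-fold steps in cation-adjusted Mueller Hinton broth, overlaid with a beta-lactam held static at 4 μg/ml final.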

[2] = test system: K.P. 156319 KPC-3; experiment: Broth microdilution MIC, K. pneumoniae 156319; assay type: cell-based; settings: fixed meropenem 4 μg/mL, CAMHB, 16-20 hours 37° C.
[3] = molecular target: T1, VIM-2 (Escherichia coli, UniProt Q5U7L7); experiment: β-Lactamase inhibition, VIM-2 (nitrocefin substrate); assay type: biochemical
T1 construct: made in house; host or cells: E. coli BL21 (DE3)
Method: For SHV-5, Kpc-2, p99AmpC and OXA-1 β-lactamases, E. coli BL21 (DE3) bacterial cells carrying expression plasmids (expressed as native untagged proteins) for the individual β-lactamases were grown in 1 L of Superbroth (Teknova Inc. Hollister, Calif.) supplemented with 100 μg/ml kanamycin selection and 1×5052 (0.5% glycerol, 0.05% glucose and 0.2% α-lactose) at 35° C. for 18-20 hours. Cells were harvested by centrifugation (4,000×g, 4° C., 20 min), resuspended in 50 ml of 10 mM HEPES pH 7.5 ( 1/20 of the initial volume). The cells were lysed by sonication (5 pulses of 45 seconds) at 45 W on ice. The lysates were clarified by centrifugation at 10,000×g for 40 minutes at 4° C. Samples were diluted 5-fold in 50 mM sodium acetate pH 5.0, stored overnight at 4° C., after which they were centrifuged at 10,000×g for 30 minutes to clarify, and filtered through 0.45 µm filters. The samples were loaded onto a 5 ml Capto S sepharose cation exchange column (GE Healthcare) pre-equilibrated with 50 mM sodium acetate pH 5.0. […] Active fractions were pooled concentrated, quantitated by BCA protein determination (Thermo Scientific, Rockford, Ill.), dialyzed into PBS and frozen at −80° C. in 20% glycerol until use. […]
(§2) An equal volume of diluted enzyme stock was added, and the plates were incubated at 37° C. for 15 min. […] Absorbance at 486 nm was immediately monitored for 10 min using a Biotek Powerwave XS2 microplate spectrophotometer using the GEN5 software package (Biotek Instruments, Winooski Vt.). In an analogous fashion, imipenem was used as substrate for Kpc-2 and Cefotaxime was used for SHV-5, while changes in absorbance upon hydrolysis of the β-lactam ring were monitored at 300 nm and 260 nm respectively in UV-transparent 96-well microtiter assay plates. Maximum rates of hydrolysis were compared to those in control wells (without inhibitors), and percentages of enzyme inhibition were calculated for each concentration of inhibitor. […]

[4] = molecular target: T2, SHV-5 (Klebsiella pneumoniae, UniProt P0A3M1); experiment: β-Lactamase inhibition, SHV-5 (cefotaxime substrate); assay type: biochemical
T2 construct: made in house; host or cells: E. coli BL21 (DE3)
Method: (§3) For SHV-5, Kpc-2, p99AmpC and OXA-1 β-lactamases, E. coli BL21 (DE3) bacterial cells carrying expression plasmids (expressed as native untagged proteins) for the individual β-lactamases were grown in 1 L of Superbroth (Teknova Inc. Hollister, Calif.) supplemented with 100 μg/ml kanamycin selection and 1×5052 (0.5% glycerol, 0.05% glucose and 0.2% α-lactose) at 35° C. for 18-20 hours. Cells were harvested by centrifugation (4,000×g, 4° C., 20 min), resuspended in 50 ml of 10 mM HEPES pH 7.5 ( 1/20 of the initial volume). The cells were lysed by sonication (5 pulses of 45 seconds) at 45 W on ice. The lysates were clarified by centrifugation at 10,000×g for 40 minutes at 4° C. Samples were diluted 5-fold in 50 mM sodium acetate pH 5.0, stored overnight at 4° C., after which they were centrifuged at 10,000×g for 30 minutes to clarify, and filtered through 0.45 µm filters. The samples were loaded onto a 5 ml Capto S sepharose cation exchange column (GE Healthcare) pre-equilibrated with 50 mM sodium acetate pH 5.0. […] Active fractions were pooled concentrated, quantitated by BCA protein determination (Thermo Scientific, Rockford, Ill.), dialyzed into PBS and frozen at −80° C. in 20% glycerol until use.
as §2

[5] = molecular target: T3, p99 AmpC (Enterobacter cloacae, UniProt P05364); experiment: β-Lactamase inhibition, p99 AmpC (nitrocefin substrate); assay type: biochemical
T3 construct: made in house; host or cells: E. coli BL21 (DE3)
Method: For SHV-5, Kpc-2, p99AmpC and OXA-1 β-lactamases, E. coli BL21 (DE3) bacterial cells carrying expression plasmids (expressed as native untagged proteins) for the individual β-lactamases were grown in 1 L of Superbroth (Teknova Inc. Hollister, Calif.) supplemented with 100 μg/ml kanamycin selection and 1×5052 (0.5% glycerol, 0.05% glucose and 0.2% α-lactose) at 35° C. for 18-20 hours. Cells were harvested by centrifugation (4,000×g, 4° C., 20 min), resuspended in 50 ml of 10 mM HEPES pH 7.5 ( 1/20 of the initial volume). The cells were lysed by sonication (5 pulses of 45 seconds) at 45 W on ice. The lysates were clarified by centrifugation at 10,000×g for 40 minutes at 4° C. Samples were diluted 5-fold in 50 mM sodium acetate pH 5.0, stored overnight at 4° C., after which they were centrifuged at 10,000×g for 30 minutes to clarify, and filtered through 0.45 µm filters. The samples were loaded onto a 5 ml Capto S sepharose cation exchange column (GE Healthcare) pre-equilibrated with 50 mM sodium acetate pH 5.0. The column was washed with 5 column volumes of 50 mM sodium acetate pH 5.0 to wash out unbound protein and a linear gradient of NaCl (0 to 500 mM) was used to elute the protein (over 16 CV) from the column. Fractions were assayed for β-lactamase activity using Centa (Calbiochem, Gibbstown, N.J.) or Nitrocefin (EMD Millipore chemicals, Darmstadt, Germany) as a reporter β-lactamase substrate for activity in the isolated fractions. Active fractions were pooled, concentrated and further purified by gel filtration chromatography on a Superdex 75 prep grade gel filtration column (GE Healthcare, Piscataway, N.J.) pre-equilibrated in 50 mM Hepes pH 7.5, 150 mM NaCl. Active fractions were pooled concentrated, quantitated by BCA protein determination (Thermo Scientific, Rockford, Ill.), dialyzed into PBS and frozen at −80° C. in 20% glycerol until use.
An equal volume of diluted enzyme stock was added, and the plates were incubated at 37° C. for 15 min. Nitrocefin was used as substrate for p99 AmpC, VIM-2 and OXA-1 and dispensed into each well at a final concentration of 100 μM. Absorbance at 486 nm was immediately monitored for 10 min using a Biotek Powerwave XS2 microplate spectrophotometer using the GEN5 software package (Biotek Instruments, Winooski Vt.). In an analogous fashion, imipenem was used as substrate for Kpc-2 and Cefotaxime was used for SHV-5, while changes in absorbance upon hydrolysis of the β-lactam ring were monitored at 300 nm and 260 nm respectively in UV-transparent 96-well microtiter assay plates. Maximum rates of hydrolysis were compared to those in control wells (without inhibitors), and percentages of enzyme inhibition were calculated for each concentration of inhibitor. The concentration of inhibitor needed to reduce the initial rate of hydrolysis of substrate by 50% (IC50) was calculated as the residual activity of β-lactamase at 486 nm using GraFit version 7 kinetics software package (Erithacus Software, Surrey, UK).
Using the methodology described above, examples of the current invention were evaluated for their ability to inhibit β-lactamase enzymes from all four Ambler classifications (A through D). […] NT=Not tested.

[6] = test system: P. aerug. Ps296 VIM-2; experiment: Broth microdilution MIC, P. aeruginosa Ps296; assay type: cell-based; settings: fixed meropenem 4 μg/mL, CAMHB, 16-20 hours 37° C.
Outline: as §1

[7] = molecular target: T4, OXA-1 (Escherichia coli, UniProt P13661); experiment: β-Lactamase inhibition, OXA-1 (nitrocefin substrate); assay type: biochemical
T4 construct: made in house; host or cells: E. coli BL21 (DE3)
Method: as §3, §2

[8] = test system: K.P. A-1797 KPC-2 VIM-4; experiment: Broth microdilution MIC, K. pneumoniae A-1797; assay type: cell-based; settings: fixed meropenem 4 μg/mL, CAMHB, 16-20 hours 37° C.
[9] = test system: E. cl 144200 p99 AmpC; experiment: Broth microdilution MIC, E. cloacae 144200; assay type: cell-based; settings: fixed ceftazidime 4 μg/mL, CAMHB, 16-20 hours 37° C.
Outline: as §1

[10] = molecular target: T5, KPC-2 (Klebsiella pneumoniae, UniProt Q9F663); experiment: β-Lactamase inhibition, KPC-2 (imipenem substrate); assay type: biochemical
T5 construct: made in house; host or cells: E. coli BL21 (DE3)
Method: as §3, §2

[11] = test system: S. aureus MSSA-7 PC-1; experiment: Broth microdilution MIC, S. aureus MSSA-7; assay type: cell-based; settings: Staphylococcus aureus, fixed piperacillin 4 μg/mL, CAMHB, 16-20 hours 37° C., read-out: MIC of exemplary compounds in presence of fixed β-lactams, Fixed Pip, S. aureus MSSA-7 PC-1

T3 sequence (P05364 21-381): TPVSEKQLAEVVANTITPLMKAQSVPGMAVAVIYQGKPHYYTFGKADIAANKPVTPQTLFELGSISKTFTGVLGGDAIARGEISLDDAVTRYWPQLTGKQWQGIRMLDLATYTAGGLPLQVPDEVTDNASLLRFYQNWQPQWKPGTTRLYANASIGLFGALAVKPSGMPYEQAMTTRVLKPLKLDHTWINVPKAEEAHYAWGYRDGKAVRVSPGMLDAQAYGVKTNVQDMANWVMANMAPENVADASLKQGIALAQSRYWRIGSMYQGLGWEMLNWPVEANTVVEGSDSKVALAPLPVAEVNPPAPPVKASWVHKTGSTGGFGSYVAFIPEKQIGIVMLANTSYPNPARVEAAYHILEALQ
T5 sequence (Q9F663 25-293 limits assumed): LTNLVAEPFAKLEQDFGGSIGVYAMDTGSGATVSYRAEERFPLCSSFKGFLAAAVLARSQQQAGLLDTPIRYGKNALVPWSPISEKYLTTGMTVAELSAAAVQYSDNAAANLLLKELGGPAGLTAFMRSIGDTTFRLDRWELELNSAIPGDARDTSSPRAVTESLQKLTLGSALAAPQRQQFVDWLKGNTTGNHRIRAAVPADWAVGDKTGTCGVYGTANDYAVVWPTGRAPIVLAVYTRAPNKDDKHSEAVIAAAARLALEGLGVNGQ
T4 sequence (P13661 26-276): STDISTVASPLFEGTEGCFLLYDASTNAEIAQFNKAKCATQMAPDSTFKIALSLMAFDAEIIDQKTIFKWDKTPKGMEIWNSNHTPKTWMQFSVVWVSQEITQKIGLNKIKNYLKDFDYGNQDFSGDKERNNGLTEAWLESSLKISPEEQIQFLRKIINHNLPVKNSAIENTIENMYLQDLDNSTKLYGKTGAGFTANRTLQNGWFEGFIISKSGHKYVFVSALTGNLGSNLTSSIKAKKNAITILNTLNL
T2 sequence (P0A3M1 22-286): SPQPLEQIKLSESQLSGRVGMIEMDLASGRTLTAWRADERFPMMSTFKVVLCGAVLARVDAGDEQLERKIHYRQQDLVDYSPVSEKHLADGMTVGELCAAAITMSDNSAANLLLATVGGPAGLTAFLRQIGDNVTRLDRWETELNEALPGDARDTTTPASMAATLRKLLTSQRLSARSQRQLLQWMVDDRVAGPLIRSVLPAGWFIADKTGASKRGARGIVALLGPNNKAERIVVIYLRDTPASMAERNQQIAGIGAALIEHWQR

Row | SMILES | MIC of exemplary compounds in presence of fixed β-lactams, Fixed CAZ, E. coli ESBL4 CTX-M-15 [1] | MIC of exemplary compounds in presence of fixed β-lactams, Fixed Mero, K.P. 156319 KPC-3 [2] | IC50 [3] | IC50 [4] | IC50 [5] | MIC of exemplary compounds in presence of fixed β-lactams, Fixed Mero, P. aerug. Ps296 VIM-2 [6] | IC50 [7] | MIC of exemplary compounds in presence of fixed β-lactams, Fixed Mero, K.P. A-1797 KPC-2 VIM-4 [8] | MIC of exemplary compounds in presence of fixed β-lactams, Fixed CAZ, E. cl 144200 p99 AmpC [9] | IC50 [10] | MIC ([1]; Escherichia coli, ESBL4CTXM15, read-out: MIC of exemplary compounds in presence of fixed β-lactams, Fixed CAZ, E. coli ESBL4 CTX-M-15) | MIC [11] | MIC ([2]; Klebsiella pneumoniae, read-out: MIC of exemplary compounds in presence of fixed β-lactams, Fixed Mero, K.P. 156319 KPC-3) | IC50 ([5]; nitrocefin 100 μM, 486 nm, 15 min preincubation 37° C., PBS pH 7.4, read-out: IC50 AmpC (Class C)) | MIC ([6]; Pseudomonas aeruginosa, read-out: MIC of exemplary compounds in presence of fixed β-lactams, Fixed Mero, P. aerug. Ps296 VIM-2) | MIC ([8]; Klebsiella pneumoniae, read-out: MIC of exemplary compounds in presence of fixed β-lactams, Fixed Mero, K.P. A-1797 KPC-2 VIM-4) | MIC ([9]; Enterobacter cloacae, read-out: MIC of exemplary compounds in presence of fixed β-lactams, Fixed CAZ, E. cl 144200 p99 AmpC)
1 | NC[C@@H]1CC[C@@H](CC(=O)N[C@H]2Cc3cccc(C(=O)O)c3OB2O)C[C@H]1CN (mixture of isomers) [Example 18, (3R)-3-[[2-[(1S,3S,4S)-3,4-bis(aminomethyl)cyclohexyl]acetyl]amino]-2-hydroxy-3,4-dihydro-1,2-benzoxaborinine-8-carboxylic acid and (3R)-3-[[2-[(1R,3R,4R)-3,4-bis(aminomethyl)cyclohexyl]acetyl]amino]-2-hydroxy-3,4-dihydro-1,2-benzoxaborinine-8-carboxylic acid] | C (C represents the MIC in the presence of <4 μg/mL of a β-lactamase inhibitor of exemplary compounds) | C (C represents the MIC in the presence of <4 μg/mL of a β-lactamase inhibitor of exemplary compounds) | < 100 nM | < 100 nM | < 100 nM | C (C represents the MIC in the presence of <4 μg/mL of a β-lactamase inhibitor of exemplary compounds) | < 100 nM | B (B represents the MIC in the presence of between 8 and 32 μg/mL of a β-lactamase inhibitor of exemplary compounds) | C (C represents the MIC in the presence of <4 μg/mL of a β-lactamase inhibitor of exemplary compounds) | < 100 nM |  |  |  |  |  |  | 
2 | N[C@H]1CC(C(=O)N[C@H]2Cc3cccc(C(=O)O)c3OB2O)C[C@@H]1N (mixture of isomers) [Example 19, (3R)-3-[[(3S,4S)-3,4-diaminocyclopentanecarbonyl]amino]-2-hydroxy-3,4-dihydro-1,2-benzoxaborinine-8-carboxylic acid and (3R)-3-[[(3R,4R)-3,4-diaminocyclopentanecarbonyl]amino]-2-hydroxy-3,4-dihydro-1,2-benzoxaborinine-8-carboxylic acid] | C (C represents the MIC in the presence of <4 μg/mL of a β-lactamase inhibitor of exemplary compounds) | C (C represents the MIC in the presence of <4 μg/mL of a β-lactamase inhibitor of exemplary compounds) | < 100 nM | 100 to 1000 nM | < 100 nM | C (C represents the MIC in the presence of <4 μg/mL of a β-lactamase inhibitor of exemplary compounds) | < 100 nM | C (C represents the MIC in the presence of <4 μg/mL of a β-lactamase inhibitor of exemplary compounds) | C (C represents the MIC in the presence of <4 μg/mL of a β-lactamase inhibitor of exemplary compounds) | < 100 nM |  |  |  |  |  |  | 
3 | N=C(N)N1CCN([C@H]2CC[C@H](CC(=O)N[C@H]3Cc4cccc(C(=O)O)c4OB3O)CC2)CC1 [Example 24, (R)-3-(2-(trans-4-(4-carbamimidoylpiperazin-1-yl)cyclohexyl)acetamido)-2-hydroxy-3,4-dihydro-2H-benzo[e][1,2]oxaborinine-8-carboxylic acid] |  |  |  |  |  |  |  |  |  |  | < 4 µg/mL | < 4 µg/mL | < 4 µg/mL | < 100 nM | 8 to 32 µg/mL | < 4 µg/mL | < 4 µg/mL

— US10669290B2, “Beta-lactamase inhibitors” (priority 2012, dated 2020)
